Experimental data from PMC4666608, “Metabolic Profiling of Chicken Embryos Exposed to Perfluorooctanoic Acid (PFOA) and Agonists to Peroxisome Proliferator-Activated Receptors” (PLoS ONE, 2015).
Marks after values point to notes of the source that are not given here.

Tested on: chicken embryos
Experiment: Metabolic profiling of allantoic fluid (GC-MS, LC-MS, OPLS-DA)
Assay type: in vivo, Gallus gallus domesticus
Settings: 150 μg/egg
Method: Controls were injected with 20 μL vehicle only (DMSO).
Plasma was collected and stored at -70°C.
Metabolites in allantoic fluid and blood plasma were analyzed using gas chromatography-mass spectrometry (GC-MS) and liquid chromatography-mass spectrometry (LC-MS) as described in S1 Methods. Prior to GC-MS and LC-MS analysis, allantoic fluid (100 μL) and blood plasma (50 μL) were extracted. To each sample, 900 μL (allantoic fluid) or 450 μL (blood plasma) of extraction buffer (90/10 v/v methanol:water) including all internal standards were added. Standards for GC-MS were proline, succinic acid, glutamic acid, salicylic acid, alpha-ketoglutarate, putrescine, myristic acid, hexadecanoic acid, cholesterol, and sucrose. Standards for LC-MS were Val-Tyr-Val, Leu-enkephalin, sulfadimethoxine and reserpine. Samples were homogenized by shaking in a bead mill at a frequency of 30 Hz for 3 minutes and proteins were precipitated at +4°C on ice. The samples were centrifuged at +4°C, 14000 rpm, for 10 min. Then, 200 μL supernatant was transferred to a GC microvial and 200 μL was transferred to an LC microvial, and solvents were evaporated. Samples from the four replicate experiments were analyzed using in chronological order and within each replicate experiment the run order of the individual samples was randomized.
Multivariate statistical analyses of metabolite profiles were performed using the software package SIMCA-P version 13.0 (Umetrics, Umeå, Sweden). Data was centered and scaled to variance 1 (UV scaling) prior to modelling. To reduce unintended systematic variation caused by sample processing and instrument drift, GC-MS and LC-MS metabolite amounts (expressed as the area under the chromatographic peak) were normalized by Orthogonal Partial Least Squares analysis (O2PLS) prior to multivariate data analysis. O2PLS finds common (predictive) and unique (orthogonal) variation in two data matrices. If applied to find the common variation between the data matrix containing the measured metabolite concentrations and a matrix containing only the internal standards, the only common (predictive) variation expected is due to the unintended systematic variation. By deleting the contribution of the predictive latent variables, that variation can be removed from the data. Models obtained after this normalization contain in general less latent variables, and this simplification helps when deciding on the number of latent variables to be used. Following normalization, GC-MS and LC-MS data were analyzed together. Initially, a global Principal Component Analysis (PCA) was performed to get an overview of groups and trends and to identify outliers. Projections to latent structures by means of Orthogonal Partial Least Squares Discriminant Analysis (OPLS-DA) was used to model the relationship between the X-matrix (metabolite concentrations) and the Y matrix (class, i.e. exposure group or sex), and to find x-variables that were related to class belonging. OPLS-DA is a supervised prediction and regression method that rotates the projection plane to find the maximum covariance between the data and the class assignment. All groups were first analyzed together in a 5-class OPLS-DA and then each exposure group was analyzed against the control group in a 2-class OPLS-DA. Sex differences were analyzed both using the whole data set and in each group separately using 2-class OPLS-DA, with females and males as the two classes. Only variables with 80% or more nonzero values were included in the statistical models. […] The validity of each model was also checked using CV-ANOVA (ANOVA of the cross-validated residuals). A significance level of p < 0.05 was used. For each model, R ^2 X, R ^2 Y and Q ^2 values were calculated, where R ^2 X is a measure of the fraction of x variation modeled in the extracted latent variables, R ^2 Y is a measure of the fraction of y variation modeled and Q ^2 is an estimate of the predictive ability of the model and is calculated by cross-validation. […]

[1] = GC, tentative 2-Oxovaleric acid

CC(C)(Sc1ccc(CCN(CCCCC2CCCCC2)C(=O)NC2CCCCC2)cc1)C(=O)O [GW7647, reference compound]
Mean concentration relative to control, feature Win004_C08 (GC): 1.3***
Mean concentration relative to control, feature Win005_C07 (GC): 1.4***
Mean concentration relative to control, feature Win008_C06 (GC): 2.7***
Mean concentration relative to control, feature Win022_C01 (GC): 2.3***
Mean concentration relative to control, feature Win023_C06 (GC): 2.8***
Mean concentration relative to control, feature win006_C01 (GC): 2.4***
Mean concentration relative to control, feature Win008_C07 (GC, tentative 1-Aminocyclopropanecarboxylic acid): 1.4***
Mean concentration relative to control, feature Win023_C03 (GC, tentative 2-Oxoglutaric acid): 2.5***
Mean concentration relative to control, feature Win007_C09 [1]: 1.5***
Mean concentration relative to control, feature Win008_C05 [1]: 1.6***
Mean concentration relative to control, feature Win018_C04 (GC, tentative 3-Amino-2-piperidone): 1.4***
Mean concentration relative to control, feature Win007_C03 (GC, tentative 3-Hydroxybutanoic acid): 1.3***
Mean concentration relative to control, feature Win042_C02 (GC, tentative Cystathionine): 2.1***
Mean concentration relative to control, feature Win009_C03 (GC, tentative Ketoleucine): 1.5***
Mean concentration relative to control, feature Win008_C04 (GC, tentative Malonic acid): 1.3***
Mean concentration relative to control, feature Win005_C03 (GC, tentative Oxalic acid): 0.8*
Mean concentration relative to control, feature Win013_C05 (GC, tentative Succinic acid): 1.3***
Mean concentration relative to control, feature 134.0239@1.1350567 (LC): 1.6*
Mean concentration relative to control, feature 145.0538@3.072527 (LC): 1.8***
Mean concentration relative to control, feature 147.0328@3.0722888 (LC): 1.7***
Mean concentration relative to control, feature 160.0323@1.1950632 (LC): 1.1*
Mean concentration relative to control, feature 173.0488@3.0734746 (LC): 1.8***
Mean concentration relative to control, feature 176.0952@1.3890611 (LC): 0.6
Mean concentration relative to control, feature 178.0428@1.7582192 (LC): 1.1
Mean concentration relative to control, feature 180.0048@4.421465 (LC): 1.0
Mean concentration relative to control, feature 189.1159@1.9209185 (LC): 0.8*
Mean concentration relative to control, feature 197.0639@2.1181405 (LC): 1.2***
Mean concentration relative to control, feature 201.012@3.046474 (LC): 1.5***
Mean concentration relative to control, feature 202.0429@2.9548414 (LC): 1.1
Mean concentration relative to control, feature 205.0533@4.421879 (LC): 1.0
Mean concentration relative to control, feature 214.016@2.1190732 (LC): 1.3***
Mean concentration relative to control, feature 226.0107@4.421457 (LC): 1.0
Mean concentration relative to control, feature 236.0816@3.0720985 (LC): 1.7***
Mean concentration relative to control, feature 241.0551@2.3510706 (LC): 1.2*
Mean concentration relative to control, feature 243.1118@2.1537287 (LC): 1.0
Mean concentration relative to control, feature 244.9972@4.421603 (LC): 1.0
Mean concentration relative to control, feature 245.1563@2.2907295 (LC): 0.8*
Mean concentration relative to control, feature 250.0981@3.072492 (LC): 1.8***
Mean concentration relative to control, feature 262.0978@2.7961144 (LC): 2.6***
Mean concentration relative to control, feature 263.0855@2.2847009 (LC): 2.1***
Mean concentration relative to control, feature 270.0441@1.1407775 (LC): 0.9
Mean concentration relative to control, feature 278.0928@3.0723689 (LC): 1.8***
Mean concentration relative to control, feature 279.1248@2.796395 (LC): 3.2***
Mean concentration relative to control, feature 280.1425@2.730277 (LC): 1.0
Mean concentration relative to control, feature 288.1166@2.9551322 (LC): 1.2
Mean concentration relative to control, feature 289.1012@3.249983 (LC): 1.8***
Mean concentration relative to control, feature 289.173@7.5030584 (LC): 0.9
Mean concentration relative to control, feature 294.1242@2.3692534 (LC): 1.0
Mean concentration relative to control, feature 302.0508@3.0722616 (LC): 1.6***
Mean concentration relative to control, feature 305.1682@5.353517 (LC): 1.7***
Mean concentration relative to control, feature 305.1684@5.2955093 (LC): 1.6***
Mean concentration relative to control, feature 308.073@4.4211636 (LC): 1.0
Mean concentration relative to control, feature 310.1181@1.5090439 (LC): 1.1
Mean concentration relative to control, feature 316.0389@3.0725708 (LC): 1.5***
Mean concentration relative to control, feature 320.0626@3.0729218 (LC): 1.5***
Mean concentration relative to control, feature 325.1114@2.1190624 (LC): 1.5***
Mean concentration relative to control, feature 325.1115@2.3554378 (LC): 1.3*
Mean concentration relative to control, feature 333.1335@2.8639288 (LC): 0.9
Mean concentration relative to control, feature 333.2005@6.5291867 (LC): 1.3*
Mean concentration relative to control, feature 335.1866@4.508565 (LC): 0.4***
Mean concentration relative to control, feature 337.1651@1.8737898 (LC): 1.4***
Mean concentration relative to control, feature 344.1424@2.348947 (LC): 1.3
Mean concentration relative to control, feature 348.0553@3.0730357 (LC): 1.5***
Mean concentration relative to control, feature 349.1651@2.4087605 (LC): 0.6***
Mean concentration relative to control, feature 357.1997@6.9691257 (LC): 1.1
Mean concentration relative to control, feature 371.1513@3.0009465 (LC): 1.2
Mean concentration relative to control, feature 375.1819@3.672254 (LC): 0.6***
Mean concentration relative to control, feature 394.167@3.9552917 (LC): 0.5***
Mean concentration relative to control, feature 414.1482@2.118972 (LC): 1.5***
Mean concentration relative to control, feature 466.0837@2.1187525 (LC): 1.5***
Mean concentration relative to control, feature 488.0753@4.419585 (LC): 1.0
Mean concentration relative to control, feature 498.1003@2.1184251 (LC): 1.4***
Mean concentration relative to control, feature 507.1682@2.1238236 (LC): 1.4***
Mean concentration relative to control, feature 580.1426@3.0726147 (LC): 2.3***
Mean concentration relative to control, feature 582.1578@2.1747615 (LC): 1.7***
Mean concentration relative to control, feature 588.1751@2.1182237 (LC): 1.5***
Mean concentration relative to control, feature 594.1337@3.0724604 (LC): 2.3***
Mean concentration relative to control, feature 604.1486@2.1174603 (LC): 1.5***
Mean concentration relative to control, feature 623.183@2.1249466 (LC): 1.8***
Mean concentration relative to control, feature 668.2625@6.4379454 (LC): 1.03*
Mean concentration relative to control, feature 155.0353@0.6447272 (LC, suggested C3H10NO4P): 0.6
Mean concentration relative to control, feature 345.0497@1.1234403 (LC, suggested C10H12N5O7P): 1.3*
Mean concentration relative to control, feature 337.0259@4.4213357 (LC, suggested C13H11N3O4S2): 1.0
Mean concentration relative to control, feature 344.1427@2.1164653 (LC, suggested C13H20N4O7): 1.5***
Mean concentration relative to control, feature 331.184@6.373359 (LC, suggested C13H25N5O5): 1.3*
Mean concentration relative to control, feature 361.2026@5.6644735 (LC, suggested C16H31N3O4S): 0.5***
